Measurements as given in patent US10022394B2, “Antiinfective composition” (priority 2011, dated 2018).

Test system: viruses
Assay: in vitro virucidal action
Settings: as the degree of hydroxymethylation increases

With hydroxymethyl-hyaluronic acid the virucidal action was “increased”.
